ChEMBL document CHEMBL1140762, “Acridones circumvent P-glycoprotein-associated multidrug resistance (MDR) in cancer cells” (Bioorg Med Chem, 2008)

Experiments:
[1] = Dissociation constant, pKa of the compound; format: physicochemical
[2] = Lipophilicity, log P of the compound; format: physicochemical; conditions: octanol/water
KB-Vi = test: Displacement of [3H]azidopine from human P-glycoprotein in KB-Vi cells; format: cell-based; parameters: concentration or dose not given beside the values
[3] = target: T1, ATP-dependent translocase ABCB1 (Homo sapiens, UniProt P08183); test: Inhibition of P-glycoprotein in MDR human KBChR-8-5 cells assessed as uptake of vinblastin relative to control; format: cell-based; parameters: concentration or dose not given beside the values
T1 sequence (P08183 whole entry): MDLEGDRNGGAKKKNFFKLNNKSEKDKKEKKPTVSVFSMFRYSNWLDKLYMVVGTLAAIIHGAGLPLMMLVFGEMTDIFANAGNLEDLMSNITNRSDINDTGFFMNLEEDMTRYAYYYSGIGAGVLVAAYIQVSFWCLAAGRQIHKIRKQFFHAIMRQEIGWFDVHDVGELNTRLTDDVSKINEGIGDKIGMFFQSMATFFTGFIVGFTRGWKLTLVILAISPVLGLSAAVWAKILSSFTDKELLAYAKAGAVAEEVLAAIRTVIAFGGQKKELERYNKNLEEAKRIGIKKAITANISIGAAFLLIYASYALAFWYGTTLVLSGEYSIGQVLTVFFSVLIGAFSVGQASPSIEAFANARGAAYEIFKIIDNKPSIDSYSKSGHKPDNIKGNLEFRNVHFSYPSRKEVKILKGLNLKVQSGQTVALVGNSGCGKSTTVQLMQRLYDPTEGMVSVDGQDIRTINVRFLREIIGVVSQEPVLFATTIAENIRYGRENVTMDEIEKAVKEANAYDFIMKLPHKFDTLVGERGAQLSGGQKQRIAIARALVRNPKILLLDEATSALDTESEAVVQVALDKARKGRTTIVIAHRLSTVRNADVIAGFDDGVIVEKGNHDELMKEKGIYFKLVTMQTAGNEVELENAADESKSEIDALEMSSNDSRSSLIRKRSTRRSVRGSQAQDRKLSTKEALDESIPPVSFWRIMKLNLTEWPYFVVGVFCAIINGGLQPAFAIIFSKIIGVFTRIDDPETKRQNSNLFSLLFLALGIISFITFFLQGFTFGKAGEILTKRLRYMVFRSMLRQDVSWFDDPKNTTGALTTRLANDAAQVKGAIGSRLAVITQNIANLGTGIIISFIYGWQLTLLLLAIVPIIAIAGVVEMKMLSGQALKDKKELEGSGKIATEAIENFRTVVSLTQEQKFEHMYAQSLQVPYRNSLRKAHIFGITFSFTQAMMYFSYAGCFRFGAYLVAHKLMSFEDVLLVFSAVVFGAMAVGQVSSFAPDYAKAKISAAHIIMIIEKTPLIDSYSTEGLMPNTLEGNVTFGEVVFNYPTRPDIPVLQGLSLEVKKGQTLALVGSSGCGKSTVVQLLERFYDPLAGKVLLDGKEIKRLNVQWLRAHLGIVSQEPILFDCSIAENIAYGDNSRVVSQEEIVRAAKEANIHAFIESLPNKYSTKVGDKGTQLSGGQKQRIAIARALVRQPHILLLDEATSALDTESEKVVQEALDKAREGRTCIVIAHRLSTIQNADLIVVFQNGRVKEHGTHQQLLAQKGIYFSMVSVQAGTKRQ

MDR = test: Cytotoxicity against MDR human KBChR cells; format: functional, cell-based
[4] = target: T1, ATP-dependent translocase ABCB1; test: Inhibition of P-glycoprotein in MDR human KBChR-8-5 cells assessed as retention of [3H]VLB after 2 hrs; format: cell-based; parameters: concentration or dose not given beside the values

Row | Compound | pKa [1] | logP [2] | Activity (KB-Vi) [%] | Activity [3] [%] | IC10 (MDR) [µM] | IC50 (MDR) [µM] | Activity [4] [%]
1 | O=c1c2ccccc2[nH]c2ccc(Cl)cc12 | 8.29 | 2.06 | 85 | 715 | 1.41 | 18 | 49
2 | O=c1c2ccccc2n(CCCN2CCN(CCO)CC2)c2ccc(Cl)cc12 | 5.26 | 1.76 | 35 | 1252 | 0.74 | 7.5 | 56.5
3 | O=c1c2ccccc2n(CCCCN2CCCC2)c2ccc(Cl)cc12 | 5.28 | 1.74 | 30 | 1010 | 1.85 | 12.5 | 79
4 | CN1CCN(CCCn2c3ccccc3c(=O)c3cc(Cl)ccc32)CC1 | 5.28 | 1.48 | 45 | 1010 | 0.8 | 9 | 51
5 | O=c1c2ccccc2n(CCCN2CCOCC2)c2ccc(Cl)cc12 | 4.87 | 1.64 | 30 | 1372 | 1.15 | 10.5 | 62
6 | CN1CCN(CCCCn2c3ccccc3c(=O)c3cc(Cl)ccc32)CC1 | 5.61 | 1.95 | 20 | 1420 | 0.8 | 8 | 75
7 | CCN(CC)CCCn1c2ccccc2c(=O)c2cc(Cl)ccc21 | 5.37 | 1.54 | 80 | 948 | 1 | 12.5 | 47
8 | O=c1c2ccccc2n(CCCN(CCO)CCO)c2ccc(Cl)cc12 | 4.8 | 1.47 | 40 | 1017 | 1.2 | 8.7 | 66
9 | O=c1c2ccccc2n(CCCN2CCCC2)c2ccc(Cl)cc12 | 5.21 | 1.55 | 50 | 988 | 0.9 | 14 | 56
10 | CCN(CC)CCCCn1c2ccccc2c(=O)c2cc(Cl)ccc21 | 5.45 | 1.9 | 20 | 1356 | 0.62 | 9.1 | 77.2
11 | O=c1c2ccccc2n(CCCCCl)c2ccc(Cl)cc12 | 8.85 | 1.68 | 70 | 982 | 1.25 | 10.8 | 60.5
12 | O=c1c2ccccc2n(CCCCl)c2ccc(Cl)cc12 | 8.65 | 1.38 | 83 | 880 | 1.35 | 15 | 40
13 | O=c1c2ccccc2n(CCCCN2CCCCC2)c2ccc(Cl)cc12 | 5.36 | 2.01 | 15 | 1855 | 0.6 | 5.2 | 77
14 | O=c1c2ccccc2n(CCCCN(CCO)CCO)c2ccc(Cl)cc12 | 4.8 | 1.67 | 20 | 1219 | 0.6 | 5 | 74
15 | O=c1c2ccccc2n(CCCCN2CCOCC2)c2ccc(Cl)cc12 | 4.91 | 1.89 | 15 | 1690 | 0.72 | 6 | 76
16 | O=c1c2ccccc2n(CCCCN2CCN(CCO)CC2)c2ccc(Cl)cc12 | 5.26 | 2.25 | 10 | 2010 | 0.46 | 4.5 | 80.5
17 | O=c1c2ccccc2n(CCCN2CCCCC2)c2ccc(Cl)cc12 | 5.39 | 1.52 | 50 | 927 | 1.25 | 15.5 | 54.5
